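Assay format: 96-well plates, 48-hour exposure. Abbreviation: GI50, concentration required for 50% inhibition of growth.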 Active and inactive are the calls of the source. No stated cut-off is given here; in the data, active = GI50 up to about 1.1 µM and inactive = higher.
Experiments:
Assay in all cases: NCI anticancer screen, dose series, 48 h
[1] = test system: Malme-3M
[2] = test system: HCC 2998
[3] = test system: DLD-1
[4] = test system: OVCAR-8
[5] = test system: M19-MEL
[6] = test system: NCI-H522
[7] = test system: OVCAR-5
[8] = test system: SN12C
[9] = test system: SK-MEL-28
[10] = test system: LXFL 529
[11] = test system: NCI-H460
[12] = test system: SK-MEL-5
[13] = test system: M14
[14] = test system: HT-29
[15] = test system: SF-295
[16] = test system: UO-31
[17] = test system: HOP-62
[18] = test system: LOX IMVI
[19] = test system: SNB-75
[20] = test system: SF-268
[21] = test system: HCT-116
[22] = test system: SF-539
[23] = test system: SK-MEL-2
[24] = test system: HOP-92
[25] = test system: RPMI-8226
[26] = test system: NCI-H226
[27] = test system: HCT-15
[28] = test system: NCI-H23
[29] = test system: OVCAR-4
[30] = test system: UACC-257
[31] = test system: HL-60
[32] = test system: CCRF-CEM
[33] = test system: ACHN
[34] = test system: HOP-18
[35] = test system: UACC-62
[36] = test system: CAKI-1
[37] = test system: SR
[38] = test system: EKVX
[39] = test system: A498
[40] = test system: SW-620
[41] = test system: SK-OV-3
[42] = test system: IGROV-1
[43] = test system: COLO 205
[44] = test system: SNB-78
[45] = test system: A549
[46] = test system: MOLT-4
[47] = test system: XF498
[48] = test system: 786-0
[49] = test system: U-251
[50] = test system: TK-10
[51] = test system: K562
[52] = test system: KM12
[53] = test system: SNB-19
[54] = test system: KM-20L2
[55] = test system: RXF 393
[56] = test system: OVCAR-3
[57] = test system: DMS-273
[58] = test system: DMS-114

O=C(Cc1ccccc1)N/N=C(/c1nc2ccc([N+](=O)[O-])cc2nc1O)C(O)c1ccccc1Cl (stereo not drawn)
GI50 [1]: > 100 µM (inactive) | GI50 [2]: 54 µM (inactive) | GI50 [3]: > 100 µM (inactive) | GI50 [4]: > 100 µM (inactive) | GI50 [5]: > 100 µM (inactive) | GI50 [6]: 6.28 µM (inactive) | GI50 [7]: > 100 µM (inactive) | GI50 [8]: > 100 µM (inactive) | GI50 [9]: > 100 µM (inactive) | GI50 [10]: 69.7 µM (inactive) | GI50 [11]: > 100 µM (inactive) | GI50 [12]: 41.4 µM (inactive) | GI50 [13]: 60.8 µM (inactive) | GI50 [14]: > 100 µM (inactive) | GI50 [15]: > 100 µM (inactive) | GI50 [16]: > 100 µM (inactive) | GI50 [17]: > 100 µM (inactive) | GI50 [18]: > 100 µM (inactive) | GI50 [19]: > 100 µM (inactive) | GI50 [20]: > 100 µM (inactive) | GI50 [21]: > 100 µM (inactive) | GI50 [22]: > 100 µM (inactive) | GI50 [23]: > 100 µM (inactive) | GI50 [24]: > 100 µM (inactive) | GI50 [25]: > 100 µM (inactive) | GI50 [26]: > 100 µM (inactive) | GI50 [27]: 40.6 µM | GI50 [28]: > 100 µM (inactive) | GI50 [29]: > 100 µM (inactive) | GI50 [30]: > 100 µM (inactive) | GI50 [31]: > 100 µM (inactive) | GI50 [32]: > 100 µM (inactive) | GI50 [33]: 56.6 µM (inactive) | GI50 [34]: > 100 µM (inactive) | GI50 [35]: > 100 µM (inactive) | GI50 [36]: 46.6 µM (inactive) | GI50 [37]: > 100 µM (inactive) | GI50 [38]: > 100 µM (inactive) | GI50 [39]: > 100 µM (inactive) | GI50 [40]: 89.9 µM (inactive) | GI50 [41]: > 100 µM (inactive) | GI50 [42]: > 100 µM (inactive) | GI50 [43]: > 100 µM (inactive) | GI50 [44]: > 100 µM (inactive) | GI50 [45]: 80.2 µM (inactive) | GI50 [46]: 70 µM (inactive) | GI50 [47]: > 100 µM (inactive) | GI50 [48]: > 100 µM (inactive) | GI50 [49]: > 100 µM (inactive) | GI50 [50]: > 100 µM (inactive) | GI50 [51]: > 100 µM (inactive) | GI50 [52]: 79.3 µM (inactive)

N=C1NC(=O)N2CC12 (stereo not drawn) [IMEXON]
GI50 [1]: > 100 µM (inactive) | GI50 [2]: > 100 µM (inactive) | GI50 [3]: > 100 µM (inactive) | GI50 [4]: > 100 µM (inactive) | GI50 [6]: > 100 µM (inactive) | GI50 [8]: > 100 µM (inactive) | GI50 [9]: > 100 µM (inactive) | GI50 [10]: > 100 µM (inactive) | GI50 [11]: > 100 µM (inactive) | GI50 [12]: > 100 µM (inactive) | GI50 [13]: > 100 µM (inactive) | GI50 [14]: > 100 µM (inactive) | GI50 [15]: > 100 µM (inactive) | GI50 [16]: > 100 µM (inactive) | GI50 [17]: > 100 µM (inactive) | GI50 [53]: > 100 µM (inactive) | GI50 [18]: > 100 µM (inactive) | GI50 [19]: > 100 µM (inactive) | GI50 [20]: > 100 µM (inactive) | GI50 [22]: > 100 µM (inactive) | GI50 [23]: > 100 µM (inactive) | GI50 [24]: > 100 µM (inactive) | GI50 [25]: > 100 µM (inactive) | GI50 [26]: > 100 µM (inactive) | GI50 [27]: > 100 µM | GI50 [28]: > 100 µM (inactive) | GI50 [29]: > 100 µM (inactive) | GI50 [30]: > 100 µM (inactive) | GI50 [54]: > 100 µM (inactive) | GI50 [31]: 30.5 µM (inactive) | GI50 [32]: 50.8 µM (inactive) | GI50 [33]: > 100 µM (inactive) | GI50 [34]: > 100 µM (inactive) | GI50 [35]: > 100 µM (inactive) | GI50 [36]: > 100 µM (inactive) | GI50 [37]: 51.4 µM (inactive) | GI50 [55]: > 100 µM (inactive) | GI50 [38]: > 100 µM (inactive) | GI50 [39]: > 100 µM (inactive) | GI50 [40]: > 100 µM (inactive) | GI50 [41]: > 100 µM (inactive) | GI50 [56]: > 100 µM (inactive) | GI50 [42]: > 100 µM (inactive) | GI50 [43]: > 100 µM (inactive) | GI50 [45]: > 100 µM (inactive) | GI50 [46]: > 100 µM (inactive) | GI50 [57]: > 100 µM (inactive) | GI50 [47]: > 100 µM (inactive) | GI50 [48]: > 100 µM (inactive) | GI50 [49]: > 100 µM (inactive) | GI50 [50]: > 100 µM (inactive) | GI50 [51]: 73.1 µM (inactive) | GI50 [58]: > 100 µM (inactive) | GI50 [52]: > 100 µM (inactive)

C[C@H](NS(=O)(=O)c1ccc(NC(=O)c2ccccc2)cc1)C(=O)O
GI50 [1]: > 100 µM (inactive) | GI50 [2]: > 100 µM (inactive) | GI50 [3]: > 100 µM (inactive) | GI50 [4]: > 100 µM (inactive) | GI50 [5]: > 100 µM (inactive) | GI50 [6]: > 100 µM (inactive) | GI50 [7]: > 100 µM (inactive) | GI50 [8]: > 100 µM (inactive) | GI50 [9]: > 100 µM (inactive) | GI50 [10]: > 100 µM (inactive) | GI50 [11]: > 100 µM (inactive) | GI50 [12]: > 100 µM (inactive) | GI50 [13]: > 100 µM (inactive) | GI50 [14]: > 100 µM (inactive) | GI50 [15]: > 100 µM (inactive) | GI50 [16]: > 100 µM (inactive) | GI50 [53]: > 100 µM (inactive) | GI50 [18]: > 100 µM (inactive) | GI50 [19]: > 100 µM (inactive) | GI50 [20]: > 100 µM (inactive) | GI50 [22]: > 100 µM (inactive) | GI50 [23]: > 100 µM (inactive) | GI50 [24]: > 100 µM (inactive) | GI50 [25]: > 100 µM (inactive) | GI50 [27]: > 100 µM | GI50 [28]: > 100 µM (inactive) | GI50 [29]: > 100 µM (inactive) | GI50 [30]: > 100 µM (inactive) | GI50 [54]: > 100 µM (inactive) | GI50 [31]: > 100 µM (inactive) | GI50 [32]: > 100 µM (inactive) | GI50 [33]: > 100 µM (inactive) | GI50 [34]: > 100 µM (inactive) | GI50 [35]: > 100 µM (inactive) | GI50 [36]: > 100 µM (inactive) | GI50 [55]: > 100 µM (inactive) | GI50 [38]: > 100 µM (inactive) | GI50 [39]: > 100 µM (inactive) | GI50 [40]: > 100 µM (inactive) | GI50 [41]: > 100 µM (inactive) | GI50 [56]: > 100 µM (inactive) | GI50 [42]: > 100 µM (inactive) | GI50 [43]: > 100 µM (inactive) | GI50 [45]: > 100 µM (inactive) | GI50 [46]: > 100 µM (inactive) | GI50 [57]: > 100 µM (inactive) | GI50 [47]: > 100 µM (inactive) | GI50 [48]: > 100 µM (inactive) | GI50 [49]: > 100 µM (inactive) | GI50 [50]: > 100 µM (inactive) | GI50 [51]: > 100 µM (inactive) | GI50 [52]: > 100 µM (inactive)

From ChEMBL document CHEMBL1201862, “PubChem BioAssay data set” (2004)
